{"source": "paper PMC12300041", "about": "“Tricyclic Isatin Derivatives as Anti-Inflammatory Compounds with High Kinase Binding Affinity” (Molecules, 2025)", "test_in_all_cases": "KINOMEscan", "format_in_all_cases": "binding", "key": {"EPHA2": {"target": "T1, EPHA2 (Homo sapiens, UniProt P29317)", "T1 construct": "purchased Eurofins DiscoverX KINOMEscan", "T1 sequence (P29317 24-976)": "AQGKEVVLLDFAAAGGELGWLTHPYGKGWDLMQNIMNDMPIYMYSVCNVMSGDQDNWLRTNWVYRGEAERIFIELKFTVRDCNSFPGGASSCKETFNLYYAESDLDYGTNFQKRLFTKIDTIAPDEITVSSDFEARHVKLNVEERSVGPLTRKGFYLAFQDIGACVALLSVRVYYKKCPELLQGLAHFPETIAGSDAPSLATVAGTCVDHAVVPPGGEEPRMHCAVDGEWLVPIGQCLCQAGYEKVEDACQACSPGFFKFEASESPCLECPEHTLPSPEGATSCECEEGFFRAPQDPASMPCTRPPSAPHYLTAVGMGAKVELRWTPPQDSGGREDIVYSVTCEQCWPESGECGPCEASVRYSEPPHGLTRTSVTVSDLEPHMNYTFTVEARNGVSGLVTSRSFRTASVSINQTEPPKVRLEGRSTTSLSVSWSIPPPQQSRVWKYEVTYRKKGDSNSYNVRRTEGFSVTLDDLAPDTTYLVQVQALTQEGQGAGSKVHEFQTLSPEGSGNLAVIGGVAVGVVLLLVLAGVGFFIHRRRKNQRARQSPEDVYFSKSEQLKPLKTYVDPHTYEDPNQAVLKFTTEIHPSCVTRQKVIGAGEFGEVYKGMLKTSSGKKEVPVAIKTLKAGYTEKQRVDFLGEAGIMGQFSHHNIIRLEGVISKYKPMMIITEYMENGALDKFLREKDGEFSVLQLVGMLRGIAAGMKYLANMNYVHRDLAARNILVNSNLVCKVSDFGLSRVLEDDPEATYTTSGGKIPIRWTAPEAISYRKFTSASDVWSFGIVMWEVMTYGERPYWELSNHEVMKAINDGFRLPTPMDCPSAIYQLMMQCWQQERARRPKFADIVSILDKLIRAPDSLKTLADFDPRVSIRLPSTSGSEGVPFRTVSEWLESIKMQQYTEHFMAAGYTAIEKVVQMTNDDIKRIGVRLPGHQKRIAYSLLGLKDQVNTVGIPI", "outline": "(§1)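 Read-out is qPCR of kinase not bound to the test compound, recovered by capture on an immobilized affinity ligand after a 1 h room-temperature binding step. Dissociation constants came from 12 half-log dilutions starting at 33 μM.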"}, "SRPK1": {"target": "T2, SRPK1 (Homo sapiens, UniProt Q96SB4)", "T2 construct": "purchased Eurofins DiscoverX KINOMEscan", "outline": "(§2)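 Binding reactions proceed for 1 h at room temperature. Kinase not bound by compound is captured on immobilized affinity ligand and quantified by qPCR; Kd is fitted over 12 half-log concentrations, top 33 μM.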"}, "[1]": {"target": "T3, RPS6KA4 (Kin. Dom.1-N-term.) (Homo sapiens, UniProt O75676)", "T3 construct": "RPS6KA4 (Kin. Dom.1-N-term.); purchased Eurofins DiscoverX KINOMEscan", "T3 sequence (O75676 1-371 limits assumed)": "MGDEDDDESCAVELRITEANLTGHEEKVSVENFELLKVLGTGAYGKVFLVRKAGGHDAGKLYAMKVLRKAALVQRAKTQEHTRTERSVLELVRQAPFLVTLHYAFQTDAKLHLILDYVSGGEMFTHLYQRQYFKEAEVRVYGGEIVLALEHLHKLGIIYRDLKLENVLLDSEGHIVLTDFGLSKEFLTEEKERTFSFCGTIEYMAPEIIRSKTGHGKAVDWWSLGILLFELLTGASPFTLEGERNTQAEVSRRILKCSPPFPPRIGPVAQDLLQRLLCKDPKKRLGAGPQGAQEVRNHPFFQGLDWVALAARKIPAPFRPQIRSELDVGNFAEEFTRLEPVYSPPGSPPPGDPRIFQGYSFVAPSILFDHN", "outline": "as §2"}, "TEC": {"target": "T4, TEC (Homo sapiens, UniProt P42680)", "T4 construct": "purchased Eurofins DiscoverX KINOMEscan", "outline": "as §1"}, "[2]": {"target": "T5, RSK3 (Kin. Dom.2-C-term.) (Homo sapiens, UniProt Q15349)", "T5 construct": "RSK3 (Kin. Dom.2-C-term.); purchased Eurofins DiscoverX KINOMEscan", "T5 sequence (Q15349 389-733 limits assumed)": "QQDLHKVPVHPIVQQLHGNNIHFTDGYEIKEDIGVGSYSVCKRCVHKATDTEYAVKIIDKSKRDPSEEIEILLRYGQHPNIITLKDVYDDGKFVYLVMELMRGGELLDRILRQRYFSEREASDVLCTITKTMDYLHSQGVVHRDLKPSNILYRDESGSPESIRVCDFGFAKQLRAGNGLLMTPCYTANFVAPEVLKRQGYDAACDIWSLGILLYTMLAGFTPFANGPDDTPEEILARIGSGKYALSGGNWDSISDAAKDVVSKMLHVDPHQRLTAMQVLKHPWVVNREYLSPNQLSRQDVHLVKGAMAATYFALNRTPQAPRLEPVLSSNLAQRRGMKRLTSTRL", "outline": "as §1"}, "MLK3": {"target": "T6, MLK3 (Homo sapiens, UniProt Q16584)", "T6 construct": "purchased Eurofins DiscoverX KINOMEscan", "outline": "as §2"}, "FYN": {"target": "T7, FYN (Homo sapiens, UniProt P06241)", "T7 construct": "purchased Eurofins DiscoverX KINOMEscan", "outline": "as §1"}, "ABL1 (H396P)-non-P": {"target": "T8, ABL1 (H396P)-non-P (Homo sapiens, UniProt P00519, H396P)", "T8 construct": "purchased Eurofins DiscoverX KINOMEscan", "outline": "as §1"}, "CDK3": {"target": "T9, CDK3 (Homo sapiens, UniProt Q00526)", "T9 construct": "purchased Eurofins DiscoverX KINOMEscan", "outline": "as §1"}, "ANKK1": {"target": "T10, ANKK1 (Homo sapiens, UniProt Q8NFD2)", "T10 construct": "purchased Eurofins DiscoverX KINOMEscan", "outline": "as §2"}, "LYN": {"target": "T11, LYN (Homo sapiens, UniProt P07948)", "T11 construct": "purchased Eurofins DiscoverX KINOMEscan", "outline": "as §1"}, "NEK4": {"target": "T12, NEK4 (Homo sapiens, UniProt P51957)", "T12 construct": "purchased Eurofins DiscoverX KINOMEscan", "outline": "as §1"}, "HIPK4": {"target": "T13, HIPK4 (Homo sapiens, UniProt Q8NE63)", "T13 construct": "purchased Eurofins DiscoverX KINOMEscan", "outline": "as §2"}, "JAK1 (JH1domain-cat.)": {"target": "T14, JAK1 (JH1domain-cat.) (Homo sapiens, UniProt P23458)", "T14 construct": "JAK1 (JH1domain-cat.); purchased Eurofins DiscoverX KINOMEscan", "T14 sequence (P23458 866-1154 limits assumed)": "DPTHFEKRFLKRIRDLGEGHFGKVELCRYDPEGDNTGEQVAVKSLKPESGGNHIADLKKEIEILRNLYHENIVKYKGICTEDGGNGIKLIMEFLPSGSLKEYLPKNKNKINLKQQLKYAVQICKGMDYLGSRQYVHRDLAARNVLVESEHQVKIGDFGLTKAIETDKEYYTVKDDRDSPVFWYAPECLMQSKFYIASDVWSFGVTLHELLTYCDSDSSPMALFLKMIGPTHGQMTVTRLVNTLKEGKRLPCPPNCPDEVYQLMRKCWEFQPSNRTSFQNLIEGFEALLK", "outline": "as §2"}, "SIK": {"target": "T15, SIK (Homo sapiens, UniProt P57059)", "T15 construct": "purchased Eurofins DiscoverX KINOMEscan", "outline": "as §2"}, "KIT (V559D, V654A)": {"target": "T16, KIT (V559D, V654A) (Homo sapiens, UniProt P10721, V559D/V654A)", "T16 construct": "purchased Eurofins DiscoverX KINOMEscan", "T16 sequence (P10721 26-976 V559D/V654A)": "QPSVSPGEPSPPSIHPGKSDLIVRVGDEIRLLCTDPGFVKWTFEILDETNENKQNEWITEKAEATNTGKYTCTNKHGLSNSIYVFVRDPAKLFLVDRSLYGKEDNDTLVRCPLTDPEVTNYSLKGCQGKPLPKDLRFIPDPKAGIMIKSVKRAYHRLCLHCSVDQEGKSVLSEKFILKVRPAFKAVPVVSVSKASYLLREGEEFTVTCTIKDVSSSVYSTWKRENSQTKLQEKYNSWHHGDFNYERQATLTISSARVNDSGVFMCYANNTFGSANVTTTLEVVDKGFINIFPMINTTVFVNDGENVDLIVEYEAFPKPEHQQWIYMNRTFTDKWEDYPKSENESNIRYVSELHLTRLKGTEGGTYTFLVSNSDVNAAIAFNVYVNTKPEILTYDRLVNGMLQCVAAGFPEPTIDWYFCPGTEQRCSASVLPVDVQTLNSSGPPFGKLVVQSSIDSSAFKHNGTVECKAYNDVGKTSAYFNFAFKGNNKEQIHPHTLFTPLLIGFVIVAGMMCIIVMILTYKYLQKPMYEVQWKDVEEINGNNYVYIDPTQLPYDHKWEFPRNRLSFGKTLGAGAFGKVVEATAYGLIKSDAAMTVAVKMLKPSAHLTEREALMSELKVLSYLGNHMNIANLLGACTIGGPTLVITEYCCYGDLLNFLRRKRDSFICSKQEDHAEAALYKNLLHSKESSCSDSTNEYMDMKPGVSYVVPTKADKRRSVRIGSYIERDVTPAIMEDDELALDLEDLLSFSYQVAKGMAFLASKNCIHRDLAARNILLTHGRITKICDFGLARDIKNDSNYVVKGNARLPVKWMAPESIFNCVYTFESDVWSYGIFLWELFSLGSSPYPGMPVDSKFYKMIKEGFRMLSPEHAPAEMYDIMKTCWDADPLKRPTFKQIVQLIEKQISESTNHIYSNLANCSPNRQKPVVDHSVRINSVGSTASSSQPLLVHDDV", "outline": "as §2"}, "EGFR": {"target": "T17, EGFR (Homo sapiens, UniProt P00533)", "T17 construct": "purchased Eurofins DiscoverX KINOMEscan", "outline": "as §1"}, "VEGFR2": {"target": "T18, VEGFR2 (Homo sapiens, UniProt P35968)", "T18 construct": "purchased Eurofins DiscoverX KINOMEscan", "outline": "as §2"}, "MARK4": {"target": "T19, MARK4 (Homo sapiens, UniProt Q96L34)", "T19 construct": "purchased Eurofins DiscoverX KINOMEscan", "outline": "as §2"}, "CHEK1": {"target": "T20, CHEK1 (Homo sapiens, UniProt O14757)", "T20 construct": "purchased Eurofins DiscoverX KINOMEscan", "outline": "as §1"}, "NLK": {"target": "T21, NLK (Homo sapiens, UniProt Q9UBE8)", "T21 construct": "purchased Eurofins DiscoverX KINOMEscan", "outline": "as §2"}, "EIF2AK1": {"target": "T22, EIF2AK1 (Homo sapiens, UniProt Q9BQI3)", "T22 construct": "purchased Eurofins DiscoverX KINOMEscan", "outline": "as §1"}, "[3]": {"target": "T23, RSK1 (Kin. Dom.2-C-term.) (Homo sapiens, UniProt Q15418)", "T23 construct": "RSK1 (Kin. Dom.2-C-term.); purchased Eurofins DiscoverX KINOMEscan", "T23 sequence (Q15418 392-735 limits assumed)": "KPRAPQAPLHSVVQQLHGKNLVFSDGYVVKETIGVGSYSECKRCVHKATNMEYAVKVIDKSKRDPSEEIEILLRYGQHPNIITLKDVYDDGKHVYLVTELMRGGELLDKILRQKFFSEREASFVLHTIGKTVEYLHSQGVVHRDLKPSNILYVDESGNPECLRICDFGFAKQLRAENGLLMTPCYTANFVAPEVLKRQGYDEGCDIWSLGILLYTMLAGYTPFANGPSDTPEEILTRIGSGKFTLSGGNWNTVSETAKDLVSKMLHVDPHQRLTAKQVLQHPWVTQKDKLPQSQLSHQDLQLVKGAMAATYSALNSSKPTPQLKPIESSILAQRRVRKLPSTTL", "outline": "as §1"}, "CDK4-cyclinD1": {"target": "T24, CDK4-cyclinD1 (Homo sapiens, UniProt P11802)", "T24 construct": "purchased Eurofins DiscoverX KINOMEscan", "outline": "as §2"}, "CDK9": {"target": "T25, CDK9 (Homo sapiens, UniProt P50750)", "T25 construct": "purchased Eurofins DiscoverX KINOMEscan", "outline": "as §1"}, "ABL1 (M351T)-P": {"target": "T26, ABL1 (M351T)-P (Homo sapiens, UniProt P00519, M351T)", "T26 construct": "purchased Eurofins DiscoverX KINOMEscan", "outline": "as §1"}, "MET (M1250T)": {"target": "T27, MET (M1250T) (Homo sapiens, UniProt P08581, M1250T)", "T27 construct": "purchased Eurofins DiscoverX KINOMEscan", "T27 sequence (P08581 25-1390 M1250T)": "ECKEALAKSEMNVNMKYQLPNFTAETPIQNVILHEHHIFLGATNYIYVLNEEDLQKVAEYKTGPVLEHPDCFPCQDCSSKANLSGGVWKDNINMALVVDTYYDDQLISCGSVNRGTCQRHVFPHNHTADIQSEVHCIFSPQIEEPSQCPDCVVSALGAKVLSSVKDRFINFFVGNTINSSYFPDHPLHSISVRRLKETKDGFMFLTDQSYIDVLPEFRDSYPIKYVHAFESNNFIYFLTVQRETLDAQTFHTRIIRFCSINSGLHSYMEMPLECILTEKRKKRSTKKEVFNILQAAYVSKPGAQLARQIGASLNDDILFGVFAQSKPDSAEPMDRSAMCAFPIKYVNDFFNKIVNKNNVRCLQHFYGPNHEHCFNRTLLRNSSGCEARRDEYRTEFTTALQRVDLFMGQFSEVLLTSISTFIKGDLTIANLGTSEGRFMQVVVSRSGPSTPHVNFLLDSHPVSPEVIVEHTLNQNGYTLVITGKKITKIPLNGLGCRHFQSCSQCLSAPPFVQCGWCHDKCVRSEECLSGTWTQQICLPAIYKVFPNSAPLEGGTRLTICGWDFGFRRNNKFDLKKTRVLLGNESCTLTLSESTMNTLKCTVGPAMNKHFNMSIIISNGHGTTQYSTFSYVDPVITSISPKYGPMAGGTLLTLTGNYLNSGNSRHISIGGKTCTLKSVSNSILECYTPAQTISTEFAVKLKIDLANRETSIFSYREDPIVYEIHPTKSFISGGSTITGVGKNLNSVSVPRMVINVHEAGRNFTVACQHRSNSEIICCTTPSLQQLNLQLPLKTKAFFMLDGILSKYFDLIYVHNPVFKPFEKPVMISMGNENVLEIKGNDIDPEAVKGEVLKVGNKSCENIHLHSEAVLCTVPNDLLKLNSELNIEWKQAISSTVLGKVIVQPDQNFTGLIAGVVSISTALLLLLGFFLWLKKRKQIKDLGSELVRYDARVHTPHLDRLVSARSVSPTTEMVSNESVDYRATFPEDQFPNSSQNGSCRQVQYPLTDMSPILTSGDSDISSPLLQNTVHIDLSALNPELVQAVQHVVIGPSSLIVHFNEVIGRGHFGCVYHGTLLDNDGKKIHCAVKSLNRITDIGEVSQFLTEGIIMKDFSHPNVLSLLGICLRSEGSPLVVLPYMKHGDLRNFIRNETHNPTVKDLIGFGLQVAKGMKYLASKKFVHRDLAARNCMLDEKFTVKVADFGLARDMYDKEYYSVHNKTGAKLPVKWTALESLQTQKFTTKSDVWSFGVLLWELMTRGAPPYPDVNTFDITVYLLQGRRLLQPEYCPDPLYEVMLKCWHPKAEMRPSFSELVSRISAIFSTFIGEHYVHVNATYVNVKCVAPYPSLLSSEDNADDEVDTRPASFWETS", "outline": "as §1"}, "RIPK4": {"target": "T28, RIPK4 (Homo sapiens, UniProt P57078)", "T28 construct": "purchased Eurofins DiscoverX KINOMEscan", "outline": "as §1"}, "CDK4-cyclinD3": {"target": "T29, CDK4-cyclinD3 (Homo sapiens, UniProt P11802)", "T29 construct": "purchased Eurofins DiscoverX KINOMEscan", "outline": "as §1"}, "DMPK": {"target": "T30, DMPK (Homo sapiens, UniProt Q09013)", "T30 construct": "purchased Eurofins DiscoverX KINOMEscan", "outline": "as §2"}, "FLT3 (R834Q)": {"target": "T31, FLT3 (R834Q) (Homo sapiens, UniProt P36888, R834Q)", "T31 construct": "purchased Eurofins DiscoverX KINOMEscan", "outline": "as §1"}, "p38-σ": {"target": "T32, p38-σ (Homo sapiens, UniProt O15264)", "T32 construct": "purchased Eurofins DiscoverX KINOMEscan", "outline": "as §1"}, "ERK2": {"target": "T33, ERK2 (Homo sapiens, UniProt P28482)", "T33 construct": "purchased Eurofins DiscoverX KINOMEscan", "outline": "as §1"}, "MLCK": {"target": "T34, MLCK (Homo sapiens, UniProt Q32MK0)", "T34 construct": "purchased Eurofins DiscoverX KINOMEscan", "outline": "as §1"}, "NEK7": {"target": "T35, NEK7 (Homo sapiens, UniProt Q8TDX7)", "T35 construct": "purchased Eurofins DiscoverX KINOMEscan", "outline": "as §1"}, "CLK4": {"target": "T36, CLK4 (Homo sapiens, UniProt Q9HAZ1)", "T36 construct": "purchased Eurofins DiscoverX KINOMEscan", "outline": "as §2"}, "KIT": {"target": "T37, KIT (Homo sapiens, UniProt P10721)", "T37 construct": "purchased Eurofins DiscoverX KINOMEscan", "T37 sequence (P10721 26-976)": "as the sequence (P10721 26-976 V559D/V654A) above, with D534V, A629V counted along it", "outline": "as §1"}}, "data": [{"smiles": "O=C1Nc2c(cc([N+](=O)[O-])c3c2CCCC3)C1=NO", "note": "[Compound 5d, 3-(Hydroxyimino)-5-nitro-1,3,6,7,8,9-hexahydro-2H-benzo[g]indol-2-one]", "values": [{"measurement": "inhibition at 10 µM", "setting": "EPHA2", "result": 19, "unit": "%"}, {"measurement": "inhibition at 10 µM", "setting": "SRPK1", "result": 53, "unit": "%"}, {"measurement": "inhibition at 10 µM", "setting": "[1]", "result": 26, "unit": "%"}, {"measurement": "inhibition at 10 µM", "setting": "TEC", "result": 9, "unit": "%"}, {"measurement": "inhibition at 10 µM", "setting": "[2]", "result": 74, "unit": "%"}, {"measurement": "inhibition at 10 µM", "setting": "MLK3", "result": 31, "unit": "%"}, {"measurement": "inhibition at 10 µM", "setting": "FYN", "result": 0, "unit": "%"}, {"measurement": "inhibition at 10 µM", "setting": "ABL1 (H396P)-non-P", "result": 65, "unit": "%"}, {"measurement": "inhibition at 10 µM", "setting": "CDK3", "result": 13, "unit": "%"}, {"measurement": "inhibition at 10 µM", "setting": "ANKK1", "result": 8, "unit": "%"}, {"measurement": "inhibition at 10 µM", "setting": "LYN", "result": 9, "unit": "%"}, {"measurement": "inhibition at 10 µM", "setting": "NEK4", "result": 1, "unit": "%"}, {"measurement": "inhibition at 10 µM", "setting": "HIPK4", "result": 63, "unit": "%"}, {"measurement": "inhibition at 10 µM", "setting": "JAK1 (JH1domain-cat.)", "result": 0, "unit": "%"}, {"measurement": "inhibition at 10 µM", "setting": "SIK", "result": 9, "unit": "%"}, {"measurement": "inhibition at 10 µM", "setting": "KIT (V559D, V654A)", "result": 0, "unit": "%"}, {"measurement": "inhibition at 10 µM", "setting": "EGFR", "result": 15, "unit": "%"}, {"measurement": "inhibition at 10 µM", "setting": "VEGFR2", "result": 39, "unit": "%"}, {"measurement": "inhibition at 10 µM", "setting": "MARK4", "result": 20, "unit": "%"}, {"measurement": "inhibition at 10 µM", "setting": "CHEK1", "result": 2, "unit": "%"}, {"measurement": "inhibition at 10 µM", "setting": "NLK", "result": 11, "unit": "%"}, {"measurement": "inhibition at 10 µM", "setting": "EIF2AK1", "result": 40, "unit": "%"}, {"measurement": "inhibition at 10 µM", "setting": "[3]", "result": 60, "unit": "%"}, {"measurement": "inhibition at 10 µM", "setting": "CDK4-cyclinD1", "result": 9, "unit": "%"}, {"measurement": "inhibition at 10 µM", "setting": "CDK9", "result": 0, "unit": "%"}, {"measurement": "inhibition at 10 µM", "setting": "ABL1 (M351T)-P", "result": 5, "unit": "%"}, {"measurement": "inhibition at 10 µM", "setting": "MET (M1250T)", "result": 51, "unit": "%"}, {"measurement": "inhibition at 10 µM", "setting": "RIPK4", "result": 55, "unit": "%"}, {"measurement": "inhibition at 10 µM", "setting": "CDK4-cyclinD3", "result": 22, "unit": "%"}, {"measurement": "inhibition at 10 µM", "setting": "DMPK", "result": 49, "unit": "%"}, {"measurement": "inhibition at 10 µM", "setting": "FLT3 (R834Q)", "result": 10, "unit": "%"}, {"measurement": "inhibition at 10 µM", "setting": "p38-σ", "result": 7, "unit": "%"}, {"measurement": "inhibition at 10 µM", "setting": "ERK2", "result": 8, "unit": "%"}, {"measurement": "inhibition at 10 µM", "setting": "MLCK", "result": 11, "unit": "%"}, {"measurement": "inhibition at 10 µM", "setting": "NEK7", "result": 26, "unit": "%"}, {"measurement": "inhibition at 10 µM", "setting": "CLK4", "result": 93.9, "unit": "%"}, {"measurement": "inhibition at 10 µM", "setting": "KIT", "result": 0, "unit": "%"}]}]}
